Columns and labels:
Mcl-1 protein = Mcl-1 protein (UniProtKB primary accession number: Q07820) (Homo sapiens, UniProt Q07820); test: Inhibition of Mcl-1 by fluorescence polarisation, Method 1; format: binding; settings: fluorescence polarisation test; Method 2 values are underlined in the patent (underlining not visible here); read-out: IC50 (M) Mcl-1 FP
Procedure, shortened: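 FP competition, 11-point compound titration in 5% final DMSO; protein and labelled probe at 5 nM and 1 nM final in HEPES/NaCl/Tween 20 buffer, pH 7.4.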

[1] = test system: H929 multiple myeloma tumour line; test: In vitro cytotoxicity, Microculture Tetrazolium Assay; format: cell-based; settings: Homo sapiens, NCI-H929, 48 h, H929 cells, 48 hours exposure, MTT; read-out: IC50 (μM) MTT H929
Experimental: The cytotoxicity studies were carried out on the H929 multiple myeloma tumour line.
The cells are distributed onto microplates and exposed to the test compounds for 48 hours.

Sequence of Mcl-1 protein (Q07820 whole entry): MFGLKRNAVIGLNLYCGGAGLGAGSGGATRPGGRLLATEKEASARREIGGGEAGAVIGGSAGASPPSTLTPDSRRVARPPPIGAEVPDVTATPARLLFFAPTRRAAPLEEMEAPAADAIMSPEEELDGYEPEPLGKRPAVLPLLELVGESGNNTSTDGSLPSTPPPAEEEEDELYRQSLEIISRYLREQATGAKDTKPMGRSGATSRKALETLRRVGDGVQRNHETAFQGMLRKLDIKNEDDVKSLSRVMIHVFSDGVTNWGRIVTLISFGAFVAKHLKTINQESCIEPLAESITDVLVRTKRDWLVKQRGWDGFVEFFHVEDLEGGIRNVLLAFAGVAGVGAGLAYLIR

Row | SMILES | IC50 (Mcl-1 protein) [M] | IC50 [1] [µM]
1 | COCCNC(=O)COc1ccccc1CC(Oc1ncnc2sc(-c3ccc(F)o3)c(-c3ccc(OCCN4CCN(C)CC4)c(Cl)c3C)c12)C(=O)O [Example 157, (2R)-2-{[(5Sa)-5-{3-chloro-2-methyl-4-[2-(4-methylpiperazin-1-yl)ethoxy]phenyl}-6-(5-fluorofuran-2-yl)thieno[2,3-d]pyrimidin-4-yl]oxy}-3-(2-{2-[(2-methoxyethyl)amino]-2-oxoethoxy}phenyl)propanoic acid] | 7e-09 | 0.286
2 | Cc1c(-c2c(-c3ccc(F)o3)sc3ncnc(OC(Cc4ccccc4OCc4cc(C(F)(F)F)ccn4)C(=O)O)c23)ccc(OCCN2CCN(C)CC2)c1Cl [Example 159, (2R)-2-{[(5Sa)-5-{3-chloro-2-methyl-4-[2-(4-methylpiperazin-1-yl)ethoxy]phenyl}-6-(5-fluorofuran-2-yl)thieno[2,3-d]pyrimidin-4-yl]oxy}-3-(2-{[4-(trifluoromethyl)pyridin-2-yl]methoxy}phenyl)propanoic acid] | 9.8e-09 | 0.246
3 | COc1nc(C)cc(COc2ccccc2CC(Oc2ncnc3sc(-c4ccc(F)o4)c(-c4ccc(OCCN5CCN(C)CC5)c(Cl)c4C)c23)C(=O)O)n1 [Example 160, (2R)-2-{[(5Sa)-5-{3-chloro-2-methyl-4-[2-(4-methylpiperazin-1-yl)ethoxy]phenyl}-6-(5-fluorofuran-2-yl)thieno[2,3-d]pyrimidin-4-yl]oxy}-3-{2-[(2-methoxy-6-methylpyrimidin-4-yl)methoxy]phenyl}propanoic acid] | 5e-09 | 0.021
4 | Cc1cc(COc2ccccc2CC(Oc2ncnc3sc(-c4ccc(F)o4)c(-c4ccc(OCCN5CCN(C)CC5)c(Cl)c4C)c23)C(=O)O)ncn1 [Example 161, (2R)-2-{[(5Sa)-5-{3-chloro-2-methyl-4-[2-(4-methylpiperazin-1-yl)ethoxy]phenyl}-6-(5-fluorofuran-2-yl)thieno[2,3-d]pyrimidin-4-yl]oxy}-3-{2-[(6-methylpyrimidin-4-yl)methoxy]phenyl}propanoic acid] | 3.9e-09 | 0.081
5 | Cc1c(-c2c(-c3ccc(F)o3)sc3ncnc(OC(Cc4ccccc4OCc4cccc(C(F)(F)F)n4)C(=O)O)c23)ccc(OCCN2CCN(C)CC2)c1Cl [Example 164, (2R)-2-{[(5Sa)-5-{3-chloro-2-methyl-4-[2-(4-methylpiperazin-1-yl)ethoxy]phenyl}-6-(5-fluorofuran-2-yl)thieno[2,3-d]pyrimidin-4-yl]oxy}-3-(2-{[6-(trifluoromethyl)pyridin-2-yl]methoxy}phenyl)propanoic acid] | 8.2e-09 | 0.046
6 | Cc1c(-c2c(-c3ccc(F)o3)sc3ncnc(OC(Cc4ccccc4OCc4ccnc(C(F)(F)F)n4)C(=O)O)c23)ccc(OCCN2CCN(C)CC2)c1Cl [Example 169, (2R)-2-{[(5Sa)-5-{3-chloro-2-methyl-4-[2-(4-methylpiperazin-1-yl)ethoxy]phenyl}-6-(5-fluorofuran-2-yl)thieno[2,3-d]pyrimidin-4-yl]oxy}-3-(2-{[2-(trifluoromethyl)pyrimidin-4-yl]methoxy}phenyl)propanoic acid] | 9e-09 | 0.009
7 | Cc1c(-c2c(-c3ccc(F)o3)sc3ncnc(OC(Cc4ccccc4OCc4ccnc(-c5ccsc5)n4)C(=O)O)c23)ccc(OCCN2CCN(C)CC2)c1Cl [Example 173, (2R)-2-{[(5Sa)-5-{3-chloro-2-methyl-4-[2-(4-methylpiperazin-1-yl)ethoxy]phenyl}-6-(5-fluorofuran-2-yl)thieno[2,3-d]pyrimidin-4-yl]oxy}-3-(2-{[2-(thiophen-3-yl)pyrimidin-4-yl]methoxy}phenyl)propanoic acid] | 3.1e-09 | 0.004
8 | Cc1c(-c2c(-c3ccc(F)o3)sc3ncnc(OC(Cc4ccccc4OCc4ccnc(OCC(F)(F)F)n4)C(=O)O)c23)ccc(OCCN2CCN(C)CC2)c1Cl [Example 178, (2R)-2-{[(5Sa)-5-{3-chloro-2-methyl-4-[2-(4-methylpiperazin-1-yl)ethoxy]phenyl}-6-(5-fluorofuran-2-yl)thieno[2,3-d]pyrimidin-4-yl]oxy}-3-(2-{[2-(2,2,2-trifluoroethoxy)pyrimidin-4-yl]methoxy}phenyl)propanoic acid] | 6.3e-09 | 0.002
9 | Cc1c(-c2c(-c3ccc(F)o3)sc3ncnc(OC(Cc4ccccc4OCc4ccnn4C4CCCC4)C(=O)O)c23)ccc(OCCN2CCN(C)CC2)c1Cl [Example 183, (2R)-2-{[(5Sa)-5-{3-chloro-2-methyl-4-[2-(4-methylpiperazin-1-yl)ethoxy]phenyl}-6-(5-fluorofuran-2-yl)thieno[2,3-d]pyrimidin-4-yl]oxy}-3-{2-[(1-cyclopentyl-1H-pyrazol-5-yl)methoxy]phenyl}propanoic acid] | 5.7e-09 | 0.012
10 | Cc1c(-c2c(-c3ccc(F)o3)sc3ncnc(OC(Cc4ccccc4OCc4cncnc4)C(=O)O)c23)ccc(OCCN2CCN(C)CC2)c1Cl [Example 190, (2R)-2-{[(5Sa)-5-{3-chloro-2-methyl-4-[2-(4-methylpiperazin-1-yl)ethoxy]phenyl}-6-(5-fluorofuran-2-yl)thieno[2,3-d]pyrimidin-4-yl]oxy}-3-[2-(pyrimidin-5-ylmethoxy)phenyl]propanoic acid] | 7.5e-09 | 0.037
11 | Cc1c(-c2c(-c3ccc(F)o3)sc3ncnc(OC(Cc4ccccc4OCc4cocn4)C(=O)O)c23)ccc(OCCN2CCN(C)CC2)c1Cl [Example 191, (2R)-2-{[(5Sa)-5-{3-chloro-2-methyl-4-[2-(4-methylpiperazin-1-yl)ethoxy]phenyl}-6-(5-fluorofuran-2-yl)thieno[2,3-d]pyrimidin-4-yl]oxy}-3-[2-(1,3-oxazol-4-ylmethoxy)phenyl]propanoic acid] | 6.5e-09 | 0.063
12 | Cc1c(-c2c(-c3ccc(F)o3)sc3ncnc(OC(Cc4ccccc4OCCN(C)C)C(=O)O)c23)ccc(OCCN2CCN(C)CC2)c1Cl [Example 192, (2R)-2-{[(5Sa)-5-{3-chloro-2-methyl-4-[2-(4-methylpiperazin-1-yl)ethoxy]phenyl}-6-(5-fluorofuran-2-yl)thieno[2,3-d]pyrimidin-4-yl]oxy}-3-{2-[2-(dimethylamino)ethoxy]phenyl}propanoic acid] | 7.7e-09 | 0.848
13 | Cc1c(-c2c(-c3ccc(F)o3)sc3ncnc(OC(Cc4ccccc4OCCO)C(=O)O)c23)ccc(OCCN2CCN(C)CC2)c1Cl [Example 193, (2R)-2-{[(5Sa)-5-{3-chloro-2-methyl-4-[2-(4-methylpiperazin-1-yl)ethoxy]phenyl}-6-(5-fluorofuran-2-yl)thieno[2,3-d]pyrimidin-4-yl]oxy}-3-[2-(2-hydroxyethoxy)phenyl]propanoic acid] | 5.4e-09 | 0.116

Further molecules by falling IC50 (Mcl-1 protein), results first:

Row | IC50 (Mcl-1 protein) [M] | SMILES | IC50 [1] [µM]
14 | 1.2e-08 | Cc1c(-c2c(-c3ccc(F)o3)sc3ncnc(OC(Cc4ccccc4OCc4ccc(F)cn4)C(=O)O)c23)ccc(OCCN2CCN(C)CC2)c1Cl [Example 163, (2R)-2-{[(5Sa)-5-{3-chloro-2-methyl-4-[2-(4-methylpiperazin-1-yl)ethoxy]phenyl}-6-(5-fluorofuran-2-yl)thieno[2,3-d]pyrimidin-4-yl]oxy}-3-{2-[(5-fluoropyridin-2-yl)methoxy]phenyl}propanoic acid] | 0.047
15 | 9.9e-09 | COc1cc(COc2ccccc2CC(Oc2ncnc3sc(-c4ccc(F)o4)c(-c4ccc(OCCN5CCN(C)CC5)c(Cl)c4C)c23)C(=O)O)ncn1 [Example 162, (2R)-2-{[(5Sa)-5-{3-chloro-2-methyl-4-[2-(4-methylpiperazin-1-yl)ethoxy]phenyl}-6-(5-fluorofuran-2-yl)thieno[2,3-d]pyrimidin-4-yl]oxy}-3-{2-[(6-methoxypyrimidin-4-yl)methoxy]phenyl}propanoic acid] | 0.027
16 | 7e-09 | CCCCNC(=O)COc1ccccc1CC(Oc1ncnc2sc(-c3ccc(F)o3)c(-c3ccc(OCCN4CCN(C)CC4)c(Cl)c3C)c12)C(=O)O [Example 156, (2R)-3-{2-[2-(butylamino)-2-oxoethoxy]phenyl}-2-{[(5Sa)-5-{3-chloro-2-methyl-4-[2-(4-methylpiperazin-1-yl)ethoxy]phenyl}-6-(5-fluorofuran-2-yl)thieno[2,3-d]pyrimidin-4-yl]oxy}propanoic acid] | 0.092
17 | 5e-09 | Cc1c(-c2c(-c3ccc(F)o3)sc3ncnc(OC(Cc4ccccc4OCc4ccncn4)C(=O)O)c23)ccc(OCCN2CCN(C)CC2)c1Cl [Example 179, (2R)-2-{[(5Sa)-5-{3-chloro-2-methyl-4-[2-(4-methylpiperazin-1-yl)ethoxy]phenyl}-6-(5-fluorofuran-2-yl)thieno[2,3-d]pyrimidin-4-yl]oxy}-3-[2-(pyrimidin-4-ylmethoxy)phenyl]propanoic acid] | 0.03
18 | 4.3e-09 | Cc1c(-c2c(-c3ccc(F)o3)sc3ncnc(OC(Cc4ccccc4OCc4ccnn4CC4CC4)C(=O)O)c23)ccc(OCCN2CCN(C)CC2)c1Cl [Example 186, (2R)-2-{[(5Sa)-5-{3-chloro-2-methyl-4-[2-(4-methylpiperazin-1-yl)ethoxy]phenyl}-6-(5-fluorofuran-2-yl)thieno[2,3-d]pyrimidin-4-yl]oxy}-3-(2-{[1-(cyclopropylmethyl)-1H-pyrazol-5-yl]methoxy}phenyl)propanoic acid] | 0.013
19 | 2.8e-09 | CCCn1nccc1COc1ccccc1CC(Oc1ncnc2sc(-c3ccc(F)o3)c(-c3ccc(OCCN4CCN(C)CC4)c(Cl)c3C)c12)C(=O)O [Example 187, (2R)-2-{[(5Sa)-5-{3-chloro-2-methyl-4-[2-(4-methylpiperazin-1-yl)ethoxy]phenyl}-6-(5-fluorofuran-2-yl)thieno[2,3-d]pyrimidin-4-yl]oxy}-3-{2-[(1-propyl-1H-pyrazol-5-yl)methoxy]phenyl}propanoic acid] | 0.02

— patent US9670227B2, “Thienopyrimidine derivatives, a process for their preparation and pharmaceutical compositions containing them” (LES LABORATOIRES SERVIER, priority 2013, dated 2017)
